This is an account of results in patent publication US9309222B2, “Phenyl linked quinolinyl modulators of RORγt” (Janssen Pharmaceutica NV, priority 2012, dated 2016).

Where “and” joins values, the source holds several entries; their conditions need not be identical. Equal values may be shown once.

Test [1] has as its target T1, human RORγt ligand binding domain (RORγt LBD) (Homo sapiens, UniProt P51449).
T1 construct: His-tag (N); TurboTEV protease cleavage site (ENLYFQG) (N); made in house; host or cells: E. coli (pHIS1, modified pET vector)
T1 sequence (P51449 with tags, fused parts or gaps): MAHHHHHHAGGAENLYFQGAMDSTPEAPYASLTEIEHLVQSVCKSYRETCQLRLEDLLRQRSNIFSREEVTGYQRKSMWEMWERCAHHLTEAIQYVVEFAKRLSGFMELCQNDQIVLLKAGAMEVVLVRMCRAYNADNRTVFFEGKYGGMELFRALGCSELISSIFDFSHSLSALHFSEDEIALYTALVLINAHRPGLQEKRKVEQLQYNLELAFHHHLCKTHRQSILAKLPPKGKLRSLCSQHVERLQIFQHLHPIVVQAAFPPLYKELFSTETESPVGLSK
In words: RORγt ThermoFluor assay (thermal shift, ligand binding affinity). Conditions: estimated from concentration response of thermal shift. In a few lines:
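Thermal shift of 0.065 mg/mL RORγt with 60 μM 1,8-ANS in 100 mM Hepes pH 7.0, 10 mM NaCl, 2.5 mM GSH, 0.002% Tween-20. Compounds in 1:2 series from 10 mM DMSO stock. Dye fluorescence (500 nm emission) tracked versus temperature; ΔTm used to derive KD.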

For another test, the target named is T2, human RORγt LBD (Homo sapiens, UniProt P51449).
T2 construct: expressed in transfected cells
T2 sequence (P51449 258-518): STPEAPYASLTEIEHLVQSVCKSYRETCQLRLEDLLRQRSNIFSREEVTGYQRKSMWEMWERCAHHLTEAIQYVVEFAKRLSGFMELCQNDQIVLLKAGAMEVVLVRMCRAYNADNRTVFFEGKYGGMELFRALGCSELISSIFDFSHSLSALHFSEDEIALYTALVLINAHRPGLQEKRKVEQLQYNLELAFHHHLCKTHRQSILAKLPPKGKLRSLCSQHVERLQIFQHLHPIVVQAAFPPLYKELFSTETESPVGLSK
Put plainly: RORγt reporter assay (GAL4-RORγt LBD luciferase in HEK293T cells). Format: cell-based. The note with it: for RORγt reporter Assay, % inhibition @ 6 μM / IC50: HEK293T cells; for RORγt reporter Assay, % inhibition @ 6 μM: 6 μM compound; for IC50: 24 hours compound treatment; for inhibition at 6 µM: HEK-293T, read-out: RORγt reporter Assay, % inhibition @ 6 μM, HEK293T cells, 6 μM compound. The method, boiled down:
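Read-out is the firefly-to-renilla luciferase ratio versus compound concentration, after 24 h compound exposure of cells in phenol-red-free DMEM/5% lipid-reduced FCS. Cells were HEK293T bulk-transfected with a GAL4-responsive firefly reporter (pGL4.31) and GAL4 DBD–wild-type human RORγt LBD fusion (pBIND, renilla as transfection/viability control).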

The test system of test [2] is IL-17 production by CD4 T cells. In words: Human Th17 assay (IL-17 production by CD4 T cells under Th17 differentiation conditions). The test is classed as cell-based. The note with it: IL-17 in supernatant after 3 days. How it is done:
The human Th17 assay tests the effect of RORγt modulatory compounds on IL-17 production by CD4 T cells under conditions which favor Th17 differentiation. Total CD4^+ T cells were isolated from the peripheral blood mononuclear cells (PBMC) of healthy donors using a CD4^+ T cell isolation kit II, following the manufacturer's instructions (Miltenyi Biotec). […] 50 μL of compound at titrated concentrations in DMSO were added into each well at final DMSO concentration at 0.2%. Cells were incubated for 1 hour, then 50 μL of Th17 cell differentiation medium was added to each well. The final concentrations of antibodies and cytokines (R&D Systems) in differentiation medium were: 3×10^6/mL anti-CD3/CD28 beads (prepared using human T cell activation/expansion kit, Miltenyi Biotec), 10 μg/mL anti-IL4, 10 μg/mL anti-IFNγ, 10 ng/mL IL113, 10 ng/mL IL23, 50 ng/mL IL6, 3 ng/mL TGFβ and 20 U/mL IL2. Cells were cultured at 37° C. and 5% CO2 for 3 days. Supernatants were collected and the accumulated IL-17 in culture was measured by using MULTI-SPOT® Cytokine Plate following manufacture's instruction (Meso Scale Discovery). The plate was read using Sector Imager 6000, and IL-17 concentration was extrapolated from the standard curve. The IC50s were determined by GraphPad.

As a reminder, the Kd is a measure of binding affinity in units of concentration. By IC50 is commonly meant the concentration that inhibits the measured activity by half. As for `Cn1cncc1C(O)(c1ccc(Cl)cc1)c1ccc2nc(Cl)c(-c3ccccc3Cl)c(Cl)c2c1` (single isomer, unassigned) [Example 153b, (4-Chlorophenyl)(2,4-dichloro-3-(2-chlorophenyl)quinolin-6-yl)(1-methyl-1H-imidazol-5-yl)methanol], the Kd in test [1] was 270 nM. On human RORγt LBD, the “RORγt reporter Assay, % inhibition @ 6 μM” value came out at 93% and the IC50 stood at 690 nM. For the same molecule, the IC50 in test [2] is 1600 nM.
Taken in the same sequence, the figures for `Cn1cncc1C(O)(c1ccc(Cl)cc1)c1ccc2nc(Cl)c(-c3ccccc3Cl)c(Cl)c2c1` (single isomer, unassigned) [Example 153c, (4-Chlorophenyl)(2,4-dichloro-3-(2-chlorophenyl)quinolin-6-yl)(1-methyl-1H-imidazol-5-yl)methanol] were 19 nM, 96%, 140 nM and 250 nM.
As a reminder, the inhibition is the percentage by which the read-out fell short of the control. With `CC(=O)N1CCC(C(O)(c2ccccc2)c2ccc3nc(C(F)(F)F)c(-c4ccccc4)c(C(F)(F)F)c3c2)CC1` (single isomer, unassigned) [Example 169b, 1-(4-(Hydroxy(phenyl)(3-phenyl-2,4-bis(trifluoromethyl)quinolin-6-yl)methyl)piperidin-1-yl)ethanone], in test [1], the Kd was 3 nM. On human RORγt LBD, the IC50 was 3.8 nM and the inhibition at 6 µM was found to be 94%. This molecule returned a half-inhibitory concentration (IC50) in test [2] of 27 nM.
For `CC(=O)N1CCC(C(O)(c2ccccc2)c2ccc3nc(C(F)(F)F)c(-c4ccccc4)c(C(F)(F)F)c3c2)CC1` (single isomer, unassigned) [Example 169c, 1-(4-(Hydroxy(phenyl)(3-phenyl-2,4-bis(trifluoromethyl)quinolin-6-yl)methyl)piperidin-1-yl)ethanone], the Kd in test [1] was 52 nM. For the same molecule, at human RORγt LBD, the “RORγt reporter Assay, % inhibition @ 6 μM” value amounted to 96% and the concentration for half-maximal inhibition (IC50) stood at 100 nM. The IC50 in test [2] amounted to 110 nM.
`Cc1cc(C(O)(c2ccc(F)cc2)c2cncn2C)cc2c(C#N)c(-c3cccc(F)c3)c(C#N)nc12` (single isomer, unassigned) [Example 175c, 3-(3-Fluorophenyl)-6-((4-fluorophenyl)(hydroxy)(1-methyl-1H-imidazol-5-yl)methyl)-8-methylquinoline-2,4-dicarbonitrile]: the Kd in test [1] was 64 nM. The “RORγt reporter Assay, % inhibition @ 6 μM” value on human RORγt LBD was found to be 95%. Moreover, the IC50 was found to be 140 nM on human RORγt LBD and 110 nM in test [2] (Homo sapiens, CD4+ T, 72 h).
For the molecule `Cc1cc(C(O)(c2ccc(C(F)(F)F)nc2)c2cncn2C)cc2c(C#N)c(-c3cccc(F)c3)c(C#N)nc12` (single isomer, unassigned) [Example 176c, 3-(3-Fluorophenyl)-6-(hydroxy(1-methyl-1H-imidazol-5-yl)(6-(trifluoromethyl)pyridin-3-yl)methyl)-8-methylquinoline-2,4-dicarbonitrile], in test [1], the Kd is 68 nM. Also, the “RORγt reporter Assay, % inhibition @ 6 μM” value at human RORγt LBD is 95%. In addition, the IC50 was 320 nM on human RORγt LBD and 310 nM in test [2] (Homo sapiens, CD4+ T, 72 h).
On to `COc1nc2c(C)cc(C(O)(c3ccc(C(F)(F)F)nc3)c3cncn3C)cc2c(Cl)c1-c1cccc(F)c1` (single isomer, unassigned) [Example 177b, (4-Chloro-3-(3-fluorophenyl)-2-methoxy-8-methylquinolin-6-yl)(1-methyl-1H-imidazol-5-yl)(6-(trifluoromethyl)pyridin-3-yl)methanol], for which the Kd in test [1] was 22 nM. For the same molecule, at human RORγt LBD, inhibition was half-maximal at 400 nM (IC50) and the inhibition at 6 µM amounted to 83%. The molecule also came in with an IC50 in test [2] of 200 nM.
Consider `COc1nc2c(C)cc(C(O)(c3ccc(C(F)(F)F)nc3)c3cncn3C)cc2c(Cl)c1-c1cccc(F)c1` (single isomer, unassigned) [Example 177c, (4-Chloro-3-(3-fluorophenyl)-2-methoxy-8-methylquinolin-6-yl)(1-methyl-1H-imidazol-5-yl)(6-(trifluoromethyl)pyridin-3-yl)methanol], for which the Kd in test [1] is 1300 nM. In addition, the “RORγt reporter Assay, % inhibition @ 6 μM” value on human RORγt LBD is 98%. Moreover, the IC50 on human RORγt LBD came out at 360 nM; in test [2] it was 2500 nM.
Turning to `COc1nc2c(C)cc(C(O)(c3ccc(F)cc3)c3cncn3C)cc2c(Cl)c1-c1cccc(F)c1` (single isomer, unassigned) [Example 178c, (4-Chloro-3-(3-fluorophenyl)-2-methoxy-8-methylquinolin-6-yl)(4-fluorophenyl)(1-methyl-1H-imidazol-5-yl)methanol], the Kd in test [1] was 29 nM. Also, on human RORγt LBD, the “RORγt reporter Assay, % inhibition @ 6 μM” value amounted to 96% and the IC50 was determined as 35 nM. Also, the midpoint of inhibition in test [2] (Homo sapiens, CD4+ T, 72 h), the IC50, lay at 45 nM.
Taken in the same sequence, the figures for `COc1nc2c(C)cc(C(O)(c3ccc(C(F)(F)F)nc3)c3cncn3C)cc2c(C#N)c1-c1cccc(F)c1` (single isomer, unassigned) [Example 179c, 3-(3-Fluorophenyl)-6-(hydroxy(1-methyl-1H-imidazol-5-yl)(6-(trifluoromethyl)pyridin-3-yl)methyl)-2-methoxy-8-methylquinoline-4-carbonitrile] were 63 nM, 96%, 480 nM and about 1000 nM.
Regarding `COc1nc2c(C)cc(C(O)(c3ccc(F)cc3)c3cncn3C)cc2c(C#N)c1-c1cccc(F)c1` (single isomer, unassigned) [Example 180b, 3-(3-Fluorophenyl)-6-((4-fluorophenyl)(hydroxy)(1-methyl-1H-imidazol-5-yl)methyl)-2-methoxy-8-methylquinoline-4-carbonitrile], the Kd in test [1] was 67000 nM. For the same molecule, on human RORγt LBD, the IC50 is 1900 nM and ~3000 nM; the inhibition at 6 µM came to 80%. The same molecule came in with an IC50 in test [2] of about 5000 nM.
`COc1nc2c(C)cc(C(O)(c3ccc(F)cc3)c3cncn3C)cc2c(C#N)c1-c1cccc(F)c1` (single isomer, unassigned) [Example 180c, 3-(3-Fluorophenyl)-6-((4-fluorophenyl)(hydroxy)(1-methyl-1H-imidazol-5-yl)methyl)-2-methoxy-8-methylquinoline-4-carbonitrile]: in test [1], the Kd is 93 nM. At human RORγt LBD, the “RORγt reporter Assay, % inhibition @ 6 μM” value is 99% and 170 nM corresponded to half-maximal inhibition (IC50). In test [2], this molecule returned an IC50 of 97 nM.
Regarding `CC(=O)N1CCC(C(O)(c2ccc3nc(C(F)(F)F)c(-c4ccccc4)c(C(F)(F)F)c3c2)c2cncn2C)CC1` (single isomer, unassigned) [Example 181b, 1-(4-(Hydroxy(1-methyl-1H-imidazol-5-yl)(3-phenyl-2,4-bis(trifluoromethyl)quinolin-6-yl)methyl)piperidin-1-yl)ethanone], the Kd in test [1] is 27 nM. For the same molecule, on human RORγt LBD, the midpoint of inhibition, the IC50, lay at 62 nM and the inhibition at 6 µM was 99%. This molecule also yielded an IC50 in test [2] (Homo sapiens, CD4+ T, 72 h) of 120 nM.
For the molecule `CC(=O)N1CCC(C(O)(c2ccc3nc(C(F)(F)F)c(-c4ccccc4)c(C(F)(F)F)c3c2)c2cncn2C)CC1` (single isomer, unassigned) [Example 181c, 1-(4-(Hydroxy(1-methyl-1H-imidazol-5-yl)(3-phenyl-2,4-bis(trifluoromethyl)quinolin-6-yl)methyl)piperidin-1-yl)ethanone], in test [1], the Kd is 23 nM. Moreover, on human RORγt LBD, the “RORγt reporter Assay, % inhibition @ 6 μM” value was determined as 105% and it took 53 nM to reach half-maximal inhibition (IC50). The IC50 in test [2] turned out to be 160 nM.
